From patent EP4768484A1, “HETEROCYCLIC FUSED RING COMPOUND, AND COMPOSITION AND USE THEREOF” (Shenzhen TargetRx, Inc., priority 2023, dated 2025)

Experiments:
Format in all cases: cell-based
K562 cells = experiment: Cell growth inhibitory activity assay (CellTiter-Glo), K562 cells; conditions: Homo sapiens, 72 h, CTG cell viability
How it was run: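 K562 cells in logarithmic growth were counted, diluted and plated in 96-well plates, with medium-only blanks and a separate T0 plate read by CTG the following day. After overnight incubation, graded compound concentrations were added for 72 h, with 0.5% DMSO wells as growth controls. Luminescence was read on a Biotek cytation3.0, and IC50 came from nonlinear fitting in GraphPad Prism 7.0.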

Ba/F3 parental cells = experiment: Cell growth inhibitory activity assay (CellTiter-Glo), Ba/F3 parental cells; conditions: Mus musculus, BaF3, 72 h, CTG cell viability, read-out: IC50 Ba/F3 BCR-ABL1 Parental
How it was run: (§1)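 Compound dilutions applied for 72 h (37 °C, 5% CO2) to overnight-plated Ba/F3 cells, parental or engineered to express WT/mutant BCR-ABL1. ATP-based CellTiter-Glo luminescence read, referenced to day-0 viability and 0.5% DMSO wells; IC50 fitted by four-parameter logistic curve.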

Ba/F3 BCR-ABL1 T315I = target: T1, Ba/F3 BCR-ABL1 T315I (Homo sapiens, UniProt P00519+P11274, T315I); experiment: Cell growth inhibitory activity assay (CellTiter-Glo), Ba/F3 BCR-ABL1 T315I cells; conditions: 72 h, CTG cell viability
T1 construct: BCR (N-terminal fusion partner of the oncoprotein); expressed in transfected cells; host or cells: Ba/F3 (lentiviral transduction, monoclonal line)
How it was run: as §1

Ba/F3 BCR-ABL1 WT = target: T2, Ba/F3 BCR-ABL1 WT (Homo sapiens, UniProt P00519+P11274); experiment: Cell growth inhibitory activity assay (CellTiter-Glo), Ba/F3 BCR-ABL1 WT cells; conditions: 72 h, CTG cell viability
T2 construct: BCR (N-terminal fusion partner of the oncoprotein); expressed in transfected cells; host or cells: Ba/F3 (lentiviral transduction, monoclonal line)
How it was run: as §1

Structure (SMILES)	IC50 (K562 cells) [nM]	IC50 (Ba/F3 parental cells) [nM]	IC50 (Ba/F3 BCR-ABL1 T315I) [nM]	IC50 (Ba/F3 BCR-ABL1 WT) [nM]
C[C@@H]1COCc2nc3cc(C(=O)Nc4ccc(OC(F)(F)Cl)cc4)cc(-c4cnc5c(c4)-c4nn(-c6nccc(-c7cncnc7)n6)cc4C5)c3n21 [T-100, (R)-6-(2-([4,5'-bipyrimidin]-2-yl)-2,4-dihydropyrazolo[3',4':3,4]cyclopenta[1,2-b]pyridin-7-yl)-N-(4-(chlorodifluoromethoxy)phenyl)-4-methyl-3,4-dihydro-1H-benzo[4,5]imidazo[2,1-c][1,4]oxazine-8-carboxamide]	≤ 5	> 1000	≤ 5	≤ 5
O=C(Nc1ccc(OC(F)(F)Cl)cc1)c1cnc(N2CC[C@@H](F)C2)c(-c2cnc3c(c2)-c2nn(-c4nccc(N5CCOCC5)n4)cc2C3)c1 [T-34, (R)-N-(4-(chlorodifluoromethoxy)phenyl)-6-(3-fluoropyrrolidin-1-yl)-5-(2-(4-morpholinopyrimidin-2-yl)-2,4-dihydropyrazolo[3',4':3,4]cyclopenta[1,2-b]pyridin-7-yl)nicotinamide]	≤ 5	> 1000	≤ 5	≤ 5
CC(C)C(=O)n1cc2c(n1)-c1cc(-c3cc(C(=O)Nc4ccc(OC(F)(F)Cl)cc4)cc4nc5n(c34)[C@H](C)COC5)cnc1C2 [T-46, (R)-N-(4-(chlorodifluoromethoxy)phenyl)-6-(2-isobutyryl-2,4-dihydropyrazolo[3',4':3,4]cyclopenta[1,2-b]pyridin-7-yl)-4-methyl-3,4-dihydro-1H-benzo[4,5]imidazo[2,1-c][1,4]oxazine-8-carboxamide]	≤ 5	> 1000	≤ 5	≤ 5
C[C@@H]1COCc2nc3cc(C(=O)Nc4ccc(OC(F)(F)Cl)cc4)cc(-c4cnc5c(c4)-c4nn(-c6ncc7ccsc7n6)cc4C5)c3n21 [T-83, (R)-N-(4-(chlorodifluoromethoxy)phenyl)-4-methyl-6-(2-(thieno[2,3-d]pyrimidin-2-yl)-2,4-dihydropyrazolo[3',4':3,4]cyclopenta[1,2-b]pyridin-7-yl)-3,4-dihydro-1H-benzo[4,5]imidazo[2,1-c][1,4]oxazine-8-carboxamide]	≤ 5	> 1000	≤ 5	≤ 5
C[C@@H]1COCc2nc3cc(C(=O)Nc4ccc(OC(F)(F)Cl)cc4)cc(-c4cnc5c(c4)-c4nn(C)cc4C5)c3n21 [T-16, (R)-N-(4-(chlorodifluoromethoxy)phenyl)-4-methyl-6-(2-methyl-2,4-dihydropyrazolo[3',4':3,4]cyclopenta[1,2-b]pyridin-7-yl)-3,4-dihydro-1H-benzo[4,5]imidazo[2,1-c][1,4]oxazine-8-carboxamide]	≤ 5	> 1000	≤ 5	≤ 5
COc1nc(OC)nc(-n2cc3c(n2)-c2cc(-c4cc(C(=O)Nc5ccc(OC(F)(F)Cl)cc5)cc5nc6n(c45)[C@H](C)COC6)cnc2C3)n1 [T-70, (R)-N-(4-(chlorodifluoromethoxy)phenyl)-6-(2-(4,6-dimethoxy-1,3,5-triazin-2-yl)-2,4-dihydropyrazolo[3',4':3,4]cyclopenta[1,2-b]pyridin-7-yl)-4-methyl-3,4-dihydro-1H-benzo[4,5]imidazo[2,1-c][1,4]oxazine-8-carboxamide]	≤ 5	> 1000	5 to 50	≤ 5
C[C@@H]1COCc2nc3cc(C(=O)Nc4ccc(OC(F)(F)Cl)cc4)cc(-c4cnc5c(c4)-c4nn(-c6nccc(-c7ccccc7)n6)cc4C5)c3n21 [T-81, (R)-N-(4-(chlorodifluoromethoxy)phenyl)-4-methyl-6-(2-(4-phenyloyrimidin-2-yl)-2,4-dihydropyrazolo[3',4':3,4]cyclopenta[1,2-b]pyridin-7-yl)-3,4-dihydro-1H-benzo[4,5]imidazo[2,1-c][1,4]oxazine-8-carboxamide]	≤ 5	> 1000	≤ 5	≤ 5
Cc1cnc(-n2cc3c(n2)-c2cc(-c4cc(C(=O)Nc5ccc(OC(F)(F)Cl)cc5)cnc4N4CC[C@@H](F)C4)cnc2C3)nc1 [T-14, (R)-N-(4-(chlorodifluoromethoxy)phenyl)-6-(3-fluoropyrrolidin-1-yl)-5-(2-(5-methylpyrimidin-2-yl)-2,4-dihydropyrazolo[3',4':3,4]cyclopenta[1,2-b]pyridin-7-yl)nicotinamide]	≤ 5	> 1000	≤ 5	≤ 5
C[C@@H]1COCc2nc3cc(C(=O)Nc4ccc(OC(F)(F)Cl)cc4)cc(-c4cnc5c(c4)-c4nn(-c6nccc(-c7ccn(C)n7)n6)cc4C5)c3n21 [T-90, (R)-N-(4-(chlorodifluoromethoxy)phenyl)-4-methyl-6-(2-(4-(1-methyl-1H-oyrazol-3-yl)pyrimidin-2-yl)-2,4-dihydropyrazolo[3',4':3,4]cyclopenta[1,2-b]pyridin-7-yl)-3,4-dihydro-1H-benzo[4,5]imidazo[2,1-c][1,4]oxazine-8-carboxamide]	≤ 5	> 1000	≤ 5	≤ 5
COc1ccc(-c2ccnc(-n3cc4c(n3)-c3cc(-c5cc(C(=O)Nc6ccc(OC(F)(F)Cl)cc6)cc6nc7n(c56)[C@H](C)COC7)cnc3C4)n2)cc1F [T-91-B, (R)-N-(4-(chlorodifluoromethoxy)phenyl)-6-(2-(4-(3-fluoro-4-methoxyphenyl)pyrimidin-2-yl)-2,4-dihydropyrazolo[3',4':3,4]cyclopenta[1,2-b]pyridin-7-yl)-4-methyl-3,4-dihydro-1H-benzo[4,5]imidazo[2,1-c][1,4]oxazine-8-carboxamide]	≤ 5	> 1000	≤ 5	≤ 5
O=C(Nc1ccc(OC(F)(F)Cl)cc1)c1cnc(N2CC[C@@H](F)C2)c(-c2cnc3c(c2)-c2nn(-c4nccc(-c5cccnc5)n4)cc2C3)c1 [T-9, (R)-N-(4-(chlorodifluoromethoxy)phenyl)-6-(3-fluoropyrrolidin-1-yl)-5-(2-(4-(pyridin-3-yl)pyrimidin-2-yl)-2,4-dihydropyrazolo[3',4':3,4]cyclopenta[1,2-b]pyridin-7-yl)nicotinamide]	≤ 5	> 1000	≤ 5	≤ 5
O=C(Nc1ccc(OC(F)(F)Cl)cc1)c1cc2c(c(-c3cnc4c(c3)-c3nn(-c5ncccn5)cc3C4)c1)C1(CCCCC1)C(=O)N2 [T-126, N-(4-(chlorodifluoromethoxy)phenyl)-4'-(2-(pyrimidin-2-yl)-2,4-dihydropyrazolo[3',4':3,4]cyclopenta[1,2-b]pyridin-7-yl)-2'-oxospiro[cyclohexane-1,3'-indoline]-6'-carboxamide]	≤ 5	> 1000	≤ 5	≤ 5
Cc1ccc(-n2cc3c(n2)-c2cc(-c4cc(C(=O)Nc5ccc(OC(F)(F)Cl)cc5)cc5nc6n(c45)[C@H](C)COC6)cnc2C3)nn1 [T-104-A, (R)-N-(4-(chlorodifluoromethoxy)phenyl)-4-methyl-6-(2-(6-methylpyridazin-3-yl)-2,4-dihydropyrazolo[3',4':3,4]cyclopenta[1,2-b]pyridin-7-yl)-3,4-dihydro-1H-benzo[4,5]imidazo[2,1-c][1,4]oxazine-8-carboxamide]	≤ 5	> 1000	5 to 50	≤ 5
COc1cnc(-n2cc3c(n2)-c2cc(-c4cc(C(=O)Nc5ccc(OC(F)(F)Cl)cc5)cc5nc6n(c45)[C@H](C)COC6)cnc2C3)nc1 [T-77, (R)-N-(4-(chlorodifluoromethoxy)phenyl)-6-(2-(5-methoxypyrimidin-2-yl)-2,4-dihydropyrazolo[3',4':3,4]cyclopenta[1,2-b]pyridin-7-yl)-4-methyl-3,4-dihydro-1H-benzo[4,5]imidazo[2,1-c][1,4]oxazine-8-carboxamide]	≤ 5	> 1000	≤ 5	≤ 5
C[C@@H]1COCc2nc3cc(C(=O)Nc4ccc(OC(F)(F)Cl)cc4)cc(-c4cnc5c(c4)-c4nn(-c6nccc(N7CCOCC7)n6)cc4C5)c3n21 [T-88, (R)-N-(4-(chlorodifluoromethoxy)phenyl)-4-methyl-6-(2-(4-morpholinopyrimidin-2-yl)-2,4-dihydropyrazolo[3',4':3,4]cyclopenta[1,2-b]pyridin-7-yl)-3,4-dihydro-1H-benzo[4,5]imidazo[2,1-c][1,4]oxazine-8-carboxamide]	≤ 5	> 1000	≤ 5	≤ 5
N#Cc1ccc(-c2ccnc(-n3cc4c(n3)-c3cc(-c5cc(C(=O)Nc6ccc(OC(F)(F)Cl)cc6)cnc5N5CC[C@@H](F)C5)cnc3C4)n2)cn1 [T-19, (R)-N-(4-(chlorodifluoromethoxy)phenyl)-5-(2-(4-(6-cyanopyridin-3-yl)pyrimidin-2-yl)-2,4-dihydropyrazolo[3',4':3,4]cyclopenta[1,2-b]pyridin-7-yl)-6-(3-fluoropyrrolidin-1-yl)nicotinamide]	≤ 5	> 1000	≤ 5	≤ 5
